# Like-named read-outs stand apart in the source and are kept apart here.
# Key:
# rat mGlu3 = rat mGlu3 (Rattus norvegicus (Rat), UniProt P31422); assay: mGlu3 Ca2+ flux assay; type: cell-based; conditions: for remaining activity at 30 µM: amplitude of response at 30 μM test compound as % of maximal response to glutamate, read-out: rat mGlu3 Glu max (%)
# Procedure: (§1) The cells were grown overnight at 37° C. in the presence of 5% CO2. […] Dye was removed, 20 μL of assay buffer was added, and the plate was incubated for 10 minutes at room temperature. Ca^2+ flux was measured using the Functional Drug Screening System (FDSS7000, Hamamatsu, Japan). […] All test compounds were dissolved and diluted to a concentration of 10 mM in 100% DMSO. […] Calcium fluorescence measures were recorded as fold over basal fluorescence; raw data was then normalized to the maximal response to glutamate. […] The raw data file containing all time points was used as the data source in the analysis template. This was saved by the FDSS as a tab-delimited text file. Data were normalized using a static ratio function (F/F0) for each measurement of the total 360 values per well divided by each well's initial value. […] This is sufficient time to capture the peak amplitude of the cellular calcium response. […] EC50 values for test compounds were generated by fitting the normalized values versus the log of the test compound concentration (in mol/L) using a 4 parameter logistic equation where none of the parameters were fixed. Each of the three values collected at each concentration of test compound were weighted evenly.
# rat mGlu5 = rat mGlu5 (Rattus norvegicus (Rat), UniProt P31424); assay: mGlu5 Ca2+ flux assay; type: cell-based; conditions: for Fold selectivity (mGlu3 vs. mGlu5): ratio of rat mGlu5 EC50 or IC50 to rat mGlu3 IC50; for EC50: read-out: rat mGlu5 EC50 or IC50; for Emax at 30 µM: PAM, amplitude of response at 30 μM test compound as % of maximal response to glutamate, read-out: rat mGlu5 Glu max (%)
# Procedure: as §1, with “for 5” for “for 10”
# [1] = NAM potency, decrease of glutamate EC80 response, >30,000 = no measurable activity, >10,000 = no plateau, read-out: rat mGlu3 IC50
# Sequence of rat mGlu5 (P31424 21-1203): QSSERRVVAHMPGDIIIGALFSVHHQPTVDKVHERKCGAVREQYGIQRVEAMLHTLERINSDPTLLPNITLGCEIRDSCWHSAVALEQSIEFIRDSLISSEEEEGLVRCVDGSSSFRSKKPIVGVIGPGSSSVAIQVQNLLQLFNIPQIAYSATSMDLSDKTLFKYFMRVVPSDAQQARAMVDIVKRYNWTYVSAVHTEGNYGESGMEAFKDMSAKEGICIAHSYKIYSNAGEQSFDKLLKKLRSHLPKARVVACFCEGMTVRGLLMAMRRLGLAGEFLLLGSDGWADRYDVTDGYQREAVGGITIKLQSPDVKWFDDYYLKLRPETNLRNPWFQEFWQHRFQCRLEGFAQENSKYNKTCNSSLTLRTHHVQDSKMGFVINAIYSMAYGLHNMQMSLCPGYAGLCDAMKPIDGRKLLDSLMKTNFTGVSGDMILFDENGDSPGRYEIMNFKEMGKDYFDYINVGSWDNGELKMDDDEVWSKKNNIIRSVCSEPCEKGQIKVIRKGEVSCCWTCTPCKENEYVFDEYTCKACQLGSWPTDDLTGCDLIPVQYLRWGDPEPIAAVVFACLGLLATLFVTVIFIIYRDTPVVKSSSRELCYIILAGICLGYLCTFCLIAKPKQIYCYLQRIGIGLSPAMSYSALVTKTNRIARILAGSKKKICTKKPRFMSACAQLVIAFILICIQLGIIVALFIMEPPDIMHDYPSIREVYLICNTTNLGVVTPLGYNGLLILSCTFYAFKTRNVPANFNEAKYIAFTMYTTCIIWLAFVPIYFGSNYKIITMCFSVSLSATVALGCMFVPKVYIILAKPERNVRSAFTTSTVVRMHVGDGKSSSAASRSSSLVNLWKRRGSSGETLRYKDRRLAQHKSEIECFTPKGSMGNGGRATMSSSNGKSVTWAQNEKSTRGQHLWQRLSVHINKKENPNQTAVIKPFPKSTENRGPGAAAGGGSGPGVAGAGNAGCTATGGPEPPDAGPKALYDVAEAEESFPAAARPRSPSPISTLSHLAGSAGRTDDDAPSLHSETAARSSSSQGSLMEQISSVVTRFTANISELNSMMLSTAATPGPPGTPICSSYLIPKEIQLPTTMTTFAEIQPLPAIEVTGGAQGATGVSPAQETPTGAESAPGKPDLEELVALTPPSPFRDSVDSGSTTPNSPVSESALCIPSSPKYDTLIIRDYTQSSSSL
# Sequence of rat mGlu3 (P31422 23-879): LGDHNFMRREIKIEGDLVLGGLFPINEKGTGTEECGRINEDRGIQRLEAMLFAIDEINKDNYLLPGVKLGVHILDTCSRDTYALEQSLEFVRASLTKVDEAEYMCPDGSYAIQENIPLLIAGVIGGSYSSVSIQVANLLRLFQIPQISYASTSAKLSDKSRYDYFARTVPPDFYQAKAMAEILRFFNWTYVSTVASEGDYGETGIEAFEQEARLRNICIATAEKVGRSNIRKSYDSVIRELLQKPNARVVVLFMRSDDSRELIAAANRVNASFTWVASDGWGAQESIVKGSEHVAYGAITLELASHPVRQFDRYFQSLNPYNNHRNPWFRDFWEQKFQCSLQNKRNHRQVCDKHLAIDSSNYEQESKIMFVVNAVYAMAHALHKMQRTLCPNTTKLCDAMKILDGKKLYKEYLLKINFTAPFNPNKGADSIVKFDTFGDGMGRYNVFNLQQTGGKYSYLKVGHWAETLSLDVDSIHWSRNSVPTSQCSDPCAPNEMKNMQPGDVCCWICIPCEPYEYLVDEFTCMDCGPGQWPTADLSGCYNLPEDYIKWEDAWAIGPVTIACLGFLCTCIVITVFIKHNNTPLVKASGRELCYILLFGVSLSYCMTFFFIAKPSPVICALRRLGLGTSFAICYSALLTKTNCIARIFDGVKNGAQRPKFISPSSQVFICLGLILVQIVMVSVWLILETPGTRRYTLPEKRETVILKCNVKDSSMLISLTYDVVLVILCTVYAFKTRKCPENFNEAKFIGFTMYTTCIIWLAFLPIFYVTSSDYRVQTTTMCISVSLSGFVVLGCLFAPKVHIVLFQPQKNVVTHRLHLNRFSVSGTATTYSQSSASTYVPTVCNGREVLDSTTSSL
SMILES,remaining activity at 30 µM (rat mGlu3),Fold selectivity (mGlu3 vs. mGlu5) (rat mGlu5),EC50 (rat mGlu5),IC50 (rat mGlu3; [1]),Emax at 30 µM (rat mGlu5),IC50 (rat mGlu3; read-out: rat mGlu3 IC50),"IC50 (rat mGlu3; Table 2 compounds with X = NH, read-out: mGlu3 IC50)","mGlu3 Glu max (rat mGlu3; Table 2 compounds with X = NH, response at 30 μM compound as percentage of maximal glutamate response)"
"COc1ccc(NCc2cc3n(n2)CCN(c2ccc(F)c(F)c2)C3=O)cc1 [Compound 1, 5-(3,4-Difluorophenyl)-2-(((4-methoxyphenyl)amino)methyl)-6,7-dihydropyrazolo[1,5-a]pyrazin-4(5H)-one]",4.04%,>20,> 30 µM,,,,,
"O=C1c2cc(CNc3ccccc3)nn2CCN1c1ccc(F)cc1 [Compound 2, 5-(4-fluorophenyl)-2-((phenylamino)methyl)-6,7-dihydropyrazolo[1,5-a]pyrazin-4(5H)-one]",1.99%,1.55,2.04 µM,1320 nM,98.3%,,,
"O=C1c2cc(CNc3ccccc3F)nn2CCN1c1ccc(F)cc1 [Compound 3, 5-(4-fluorophenyl)-2-(((2-fluorophenyl)amino)methyl)-6,7-dihydropyrazolo[1,5-a]pyrazin-4(5H)-one]",1.73%,2.62,2.47 µM,944 nM,95.7%,,,
"Cc1ccccc1NCc1cc2n(n1)CCN(c1ccc(F)cc1)C2=O [Compound 4, 5-(4-fluorophenyl)-2-((o-tolylamino)methyl)-6,7-dihydropyrazolo[1,5-a]pyrazin-4(5H)-one]",2.62%,>4.1,> 10 µM,2390 nM,42.2%,,,
"O=C1c2cc(CNc3ccccc3Cl)nn2CCN1c1ccc(F)cc1 [Compound 5, 2-(((2-chlorophenyl)amino)methyl)-5-(4-fluorophenyl)-6,7-dihydropyrazolo[1,5-a]pyrazin-4(5H)-one]",2.08%,1.72,2.19 µM,1270 nM,65.4%,,,
"COc1ccccc1NCc1cc2n(n1)CCN(c1ccc(F)cc1)C2=O [Compound 6, 5-(4-fluorophenyl)-2-(((2-methoxyphenyl)amino)methyl)-6,7-dihydropyrazolo[1,5-a]pyrazin-4(5H)-one]",0.98%,>9.8,> 30 µM,3040 nM,,,,
"O=C1c2cc(CNc3cccc(F)c3)nn2CCN1c1ccc(F)cc1 [Compound 7, 5-(4-fluorophenyl)-2-(((3-fluorophenyl)amino)methyl)-6,7-dihydropyrazolo[1,5-a]pyrazin-4(5H)-one]",1.28%,2.13,2.21 µM,1040 nM,99%,,,
"Cc1cccc(NCc2cc3n(n2)CCN(c2ccc(F)cc2)C3=O)c1 [Compound 8, 5-(4-fluorophenyl)-2-((m-tolylamino)methyl)-6,7-dihydropyrazolo[1,5-a]pyrazin-4(5H)-one]",2.85%,4.41,5.96 µM,1350 nM,79.4%,,,
"O=C1c2cc(CNc3cccc(Cl)c3)nn2CCN1c1ccc(F)cc1 [Compound 9, 2-(((3-chlorophenyl)amino)methyl)-5-(4-fluorophenyl)-6,7-dihydropyrazolo[1,5-a]pyrazin-4(5H)-one]",2.95%,2.74,3.32 µM,1210 nM,82.8%,,,
"COc1cccc(NCc2cc3n(n2)CCN(c2ccc(F)cc2)C3=O)c1 [Compound 10, 5-(4-fluorophenyl)-2-(((3-methoxyphenyl)amino)methyl)-6,7-dihydropyrazolo[1,5-a]pyrazin-4(5H)-one]",2.01%,>16,> 30 µM,1780 nM,,,,
"N#Cc1cccc(NCc2cc3n(n2)CCN(c2ccc(F)cc2)C3=O)c1 [Compound 11, 3-(((5-(4-fluorophenyl)-4-oxo-4,5,6,7-tetrahydropyrazolo[1,5-a]pyrazin-2-yl)methyl)amino)benzonitrile]",1.48%,>24,> 30 µM,1250 nM,,,,
"O=C1c2cc(CNc3cccc(OC(F)F)c3)nn2CCN1c1ccc(F)cc1 [Compound 12, 2-(((3-(difluoromethoxy)phenyl)amino)methyl)-5-(4-fluorophenyl)-6,7-dihydropyrazolo[1,5-a]pyrazin-4(5H)-one]",1.31%,14.51,7.33 µM,505 nM,85.6%,,,
"O=C1c2cc(CNc3ccc(F)cc3)nn2CCN1c1ccc(F)cc1 [Compound 13, 5-(4-fluorophenyl)-2-(((4-fluorophenyl)amino)methyl)-6,7-dihydropyrazolo[1,5-a]pyrazin-4(5H)-one]",2.22%,2.83,3.26 µM,1150 nM,56.6%,,,
"Cc1ccc(NCc2cc3n(n2)CCN(c2ccc(F)cc2)C3=O)cc1 [Compound 14, 5-(4-fluorophenyl)-2-((p-tolylamino)methyl)-6,7-dihydropyrazolo[1,5-a]pyrazin-4(5H)-one]",-11.8%,>19,> 30 µM,1540 nM,,,,
"O=C1c2cc(CNc3ccc(Br)cc3)nn2CCN1c1ccc(F)cc1 [Compound 16, 2-(((4-bromophenyl)amino)methyl)-5-(4-fluorophenyl)-6,7-dihydropyrazolo[1,5-a]pyrazin-4(5H)-one]",,,,,,> 30000 nM,,
"COc1ccc(NCc2cc3n(n2)CCN(c2ccc(F)cc2)C3=O)cc1 [Compound 17, 5-(4-fluorophenyl)-2-(((4-methoxyphenyl)amino)methyl)-6,7-dihydropyrazolo[1,5-a]pyrazin-4(5H)-one]",1.55%,>14,> 30 µM,2120 nM,,,,
"N#Cc1ccc(NCc2cc3n(n2)CCN(c2ccc(F)cc2)C3=O)cc1 [Compound 18, 4-(((5-(4-fluorophenyl)-4-oxo-4,5,6,7-tetrahydropyrazolo[1,5-a]pyrazin-2-yl)methyl)amino)benzonitrile]",1.71%,>6.2,> 30 µM,4780 nM,,,,
"O=C1c2cc(CNc3ccc(C(F)(F)F)cc3)nn2CCN1c1ccc(F)cc1 [Compound 19, 5-(4-fluorophenyl)-2-(((4-(trifluoromethyl)phenyl)amino)methyl)-6,7-dihydropyrazolo[1,5-a]pyrazin-4(5H)-one]",,,> 30 µM,,,> 30000 nM,,
"O=C1c2cc(CNc3ccc(OC(F)F)cc3)nn2CCN1c1ccc(F)cc1 [Compound 20, 2-(((4-(difluoromethoxy)phenyl)amino)methyl)-5-(4-fluorophenyl)-6,7-dihydropyrazolo[1,5-a]pyrazin-4(5H)-one]",2.9%,>42,> 30 µM,709 nM,,,,
"O=C1c2cc(CNc3ccc(OC(F)(F)F)cc3)nn2CCN1c1ccc(F)cc1 [Compound 21, 5-(4-fluorophenyl)-2-(((4-(trifluoromethoxy)phenyl)amino)methyl)-6,7-dihydropyrazolo[1,5-a]pyrazin-4(5H)-one]",13.3%,>3,> 30 µM,,,> 10000 nM,,
"CCc1ccc(NCc2cc3n(n2)CCN(c2ccc(F)cc2)C3=O)cc1 [Compound 22, 2-(((4-ethylphenyl)amino)methyl)-5-(4-fluorophenyl)-6,7-dihydropyrazolo[1,5-a]pyrazin-4(5H)-one]",-11%,>19,> 30 µM,1550 nM,,,,
"CC(C)(C)c1ccc(NCc2cc3n(n2)CCN(c2ccc(F)cc2)C3=O)cc1 [Compound 24, 2-(((4-(tert-butyl)phenyl)amino)methyl)-5-(4-fluorophenyl)-6,7-dihydropyrazolo[1,5-a]pyrazin-4(5H)-one]",,,,,,> 30000 nM,,
O=C1c2cc(CNc3ccc(F)cc3)nn2CCN1c1ccc(F)cc1 [drawing 32 X = NH],,,,,,,1150 nM,2%
